Data: PubChem BioAssay AID1963860 (Molecular Pharmacology Branch, DTP, NCI, 2024)

Test system: CN0375-F725-PDC KRAS spheroid viability
Test: Anticancer human tumor CN0375-F725-PDC patient-derived colon carcinoma cell line growth inhibition [KRAS2]
Conditions: spheroids with HUVEC and MSC; for IC50: curve of first compound; for viability, T/C: stronger effect = lower value
In short: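 KRAS-mutant tumor cells were grown as spheroids with HUVEC endothelial cells and human MSCs as stroma. Targeted agents were tested alone and with KRAS pathway inhibitors. Doses started at or near clinical Cmax, or 10 microM, descending half-log.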

[1] = second compound 0.1 µM, first compound 0.0316 µM
[2] = second compound 0.316 µM, first compound 0.0316 µM
[3] = second compound 1 µM, first compound 0.0316 µM
[4] = second compound 3.16 µM, first compound 0.0316 µM
[5] = second compound 10 µM, first compound 0.0316 µM
[6] = second compound 0.1 µM, first compound 0.1 µM
[7] = second compound 0.1 µM, first compound 0.316 µM
[8] = second compound 0.1 µM, first compound 1 µM
[9] = second compound 0.1 µM, first compound 3.16 µM
[10] = second compound 0.1 µM, first compound 10 µM
[11] = second compound 0.316 µM, first compound 0.1 µM
[12] = second compound 0.316 µM, first compound 0.316 µM
[13] = second compound 0.316 µM, first compound 1 µM
[14] = second compound 0.316 µM, first compound 3.16 µM
[15] = second compound 0.316 µM, first compound 10 µM
[16] = second compound 1 µM, first compound 0.1 µM
[17] = second compound 1 µM, first compound 0.316 µM
[18] = second compound 1 µM, first compound 1 µM
[19] = second compound 1 µM, first compound 3.16 µM
[20] = second compound 1 µM, first compound 10 µM
[21] = second compound 3.16 µM, first compound 0.1 µM
[22] = second compound 3.16 µM, first compound 0.316 µM
[23] = second compound 3.16 µM, first compound 1 µM
[24] = second compound 3.16 µM, first compound 3.16 µM
[25] = second compound 3.16 µM, first compound 10 µM
[26] = second compound 10 µM, first compound 0.1 µM
[27] = second compound 10 µM, first compound 0.316 µM
[28] = second compound 10 µM, first compound 1 µM
[29] = second compound 10 µM, first compound 3.16 µM
[30] = second compound 10 µM, first compound 10 µM
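Also: spheroids exposed to agents for 7 days.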

CC(=O)Nc1cccc(-n2c(=O)n(C3CC3)c(=O)c3c(Nc4ccc(I)cc4F)n(C)c(=O)c(C)c32)c1 + COc1cc2nc(C)nc(NC(C)c3cc(N)cc(C(F)(F)F)c3)c2cc1OC1CCOC1
IC50 (second compound 0.1 µM): 4.1 nM
IC50 (second compound 0.316 µM): 3.26 nM
IC50 (second compound 1 µM): 1.85 nM
IC50 (second compound 3.16 µM): 0.913 nM
IC50 (second compound 10 µM): < 0.1 nM
viability, T/C (second compound 0.1 µM, first compound 0.0001 µM): 88.3%
viability, T/C (second compound 0.1 µM, first compound 0.000316 µM): 85.3%
viability, T/C (second compound 0.1 µM, first compound 0.001 µM): 65%
viability, T/C (second compound 0.1 µM, first compound 0.00316 µM): 51.6%
viability, T/C (second compound 0.1 µM, first compound 0.01 µM): 43.9%
viability, T/C [1]: 30.9%
viability, T/C (second compound 0.316 µM, first compound 0.0001 µM): 84.9%
viability, T/C (second compound 0.316 µM, first compound 0.000316 µM): 77.5%
viability, T/C (second compound 0.316 µM, first compound 0.001 µM): 60.7%
viability, T/C (second compound 0.316 µM, first compound 0.00316 µM): 49.7%
viability, T/C (second compound 0.316 µM, first compound 0.01 µM): 41.9%
viability, T/C [2]: 31.6%
viability, T/C (second compound 1 µM, first compound 0.0001 µM): 82.6%
viability, T/C (second compound 1 µM, first compound 0.000316 µM): 70.9%
viability, T/C (second compound 1 µM, first compound 0.001 µM): 54.6%
viability, T/C (second compound 1 µM, first compound 0.00316 µM): 44.1%
viability, T/C (second compound 1 µM, first compound 0.01 µM): 38.4%
viability, T/C [3]: 29.8%
viability, T/C (second compound 3.16 µM, first compound 0.0001 µM): 75.4%
viability, T/C (second compound 3.16 µM, first compound 0.000316 µM): 62.4%
viability, T/C (second compound 3.16 µM, first compound 0.001 µM): 49.3%
viability, T/C (second compound 3.16 µM, first compound 0.00316 µM): 36.4%
viability, T/C (second compound 3.16 µM, first compound 0.01 µM): 33.5%
viability, T/C [4]: 25.4%
viability, T/C (second compound 10 µM, first compound 0.0001 µM): 14%
viability, T/C (second compound 10 µM, first compound 0.000316 µM): 13.4%
viability, T/C (second compound 10 µM, first compound 0.001 µM): 9.44%
viability, T/C (second compound 10 µM, first compound 0.00316 µM): 3.96%
viability, T/C (second compound 10 µM, first compound 0.01 µM): 6.23%
viability, T/C [5]: 1.76%

COC(=O)c1ccc2c(C(=Nc3ccc(N(C)C(=O)CN4CCN(C)CC4)cc3)c3ccccc3)c(O)[nH]c2c1 + COc1cc2nc(C)nc(NC(C)c3cc(N)cc(C(F)(F)F)c3)c2cc1OC1CCOC1
IC50 (second compound 0.1 µM): 2140 nM
IC50 (second compound 0.316 µM): 3580 nM
IC50 (second compound 1 µM): 2400 nM
IC50 (second compound 3.16 µM): 1460 nM
IC50 (second compound 10 µM): < 31.6 nM
viability, T/C [1]: 97%
viability, T/C [6]: 102%
viability, T/C [7]: 91.3%
viability, T/C [8]: 87.1%
viability, T/C [9]: 31.2%
viability, T/C [10]: 0.21%
viability, T/C [2]: 97.9%
viability, T/C [11]: 99.5%
viability, T/C [12]: 86.3%
viability, T/C [13]: 85.3%
viability, T/C [14]: 55.4%
viability, T/C [15]: 0.5%
viability, T/C [3]: 91.8%
viability, T/C [16]: 91.5%
viability, T/C [17]: 85%
viability, T/C [18]: 77%
viability, T/C [19]: 41.6%
viability, T/C [20]: 0.19%
viability, T/C [4]: 85.8%
viability, T/C [21]: 78.8%
viability, T/C [22]: 80.6%
viability, T/C [23]: 66.8%
viability, T/C [24]: 16.1%
viability, T/C [25]: 0.48%
viability, T/C [5]: 18.3%
viability, T/C [26]: 18.9%
viability, T/C [27]: 13.1%
viability, T/C [28]: 9.52%
viability, T/C [29]: 1.91%
viability, T/C [30]: 0.15%

O=C(c1cc(Cc2n[nH]c(=O)c3ccccc23)ccc1F)N1CCN(C(=O)C2CC2)CC1 + COc1cc2nc(C)nc(NC(C)c3cc(N)cc(C(F)(F)F)c3)c2cc1OC1CCOC1
IC50 (second compound 0.1 µM): > 10000 nM
IC50 (second compound 0.316 µM): > 10000 nM
IC50 (second compound 1 µM): > 10000 nM
IC50 (second compound 3.16 µM): > 10000 nM
IC50 (second compound 10 µM): > 10000 nM
viability, T/C [1]: 105%
viability, T/C [6]: 106%
viability, T/C [7]: 98.4%
viability, T/C [8]: 107%
viability, T/C [9]: 98.2%
viability, T/C [10]: 106%
viability, T/C [2]: 102%
viability, T/C [11]: 103%
viability, T/C [12]: 97.8%
viability, T/C [13]: 98.8%
viability, T/C [14]: 98.8%
viability, T/C [15]: 93.2%
viability, T/C [3]: 111%
viability, T/C [16]: 107%
viability, T/C [17]: 99%
viability, T/C [18]: 97.8%
viability, T/C [19]: 107%
viability, T/C [20]: 93.5%
viability, T/C [4]: 92.8%
viability, T/C [21]: 95.4%
viability, T/C [22]: 85.8%
viability, T/C [23]: 84.6%
viability, T/C [24]: 84.9%
viability, T/C [25]: 71.5%
viability, T/C [5]: 82.2%
viability, T/C [26]: 81.4%
viability, T/C [27]: 79.3%
viability, T/C [28]: 69.9%
viability, T/C [29]: 104%
viability, T/C [30]: 98%
